≈ marks a conversion by molar mass, not a printed value.

Assay [1] concerns Pseudomonas aeruginosa. Put plainly: Antibacterial activity against Pseudomonas aeruginosa 2742 measured after 24 hrs by two-fold serial dilution method. Format: functional. Conditions: Pseudomonas aeruginosa, 2742, 24 h.
The test system of assay [2] is Staphylococcus aureus. Put plainly: Antibacterial activity against Staphylococcus aureus 209 measured after 24 hrs by two-fold serial dilution method. The note with it: Staphylococcus aureus, 209, 24 h. Format: functional.
Assay [3] relates to Salmonella typhimurium. Nature of the assay: Antibacterial activity against Salmonella typhimurium 1926 measured after 24 hrs by two-fold serial dilution method. In kind it is functional, Salmonella enterica subsp. enterica serovar Typhimurium. The note with it: Salmonella enterica, 1926, 24 h.
In assay [4] the test system is Streptococcus mutans. Nature of the assay: Antibacterial activity against Streptococcus mutans 3065 measured after 24 hrs by two-fold serial dilution method. The note with it: Streptococcus mutans, 3065, 24 h. Format: functional.
The test system of assay [5] is Staphylococcus aureus. Put plainly: Antibacterial activity against quinolone-resistant Staphylococcus aureus 3519 measured after 24 hrs by two-fold serial dilution method. In kind it is functional. Conditions: Staphylococcus aureus, 3519, 24 h.
Assay [6] deals with Mus musculus. Nature of the assay: Antiinflammatory activity in mouse assessed as inhibition of xylene-induced ear edema at 100 mg/kg, ip administered 30 mins before xylene challenge measured after 30 mins relative to DMSO-control. Format: functional.
The test system of assay [7] is Escherichia coli. Put plainly: Antibacterial activity against Escherichia coli 1356 measured after 24 hrs by two-fold serial dilution method. In kind it is functional. Conditions: Escherichia coli, 1356, 24 h.
In assay [8] the test system is Staphylococcus aureus. Put plainly: Antibacterial activity against Staphylococcus aureus 4220 measured after 24 hrs by two-fold serial dilution method. Conditions: Staphylococcus aureus, 4220, 24 h. Format: functional.
For assay [9], the system named is Staphylococcus aureus. Nature of the assay: Antibacterial activity against methicillin-resistant Staphylococcus aureus 3506 measured after 24 hrs by two-fold serial dilution method. In kind it is functional. Conditions: Staphylococcus aureus, 3506, 24 h.
For assay [10], the system named is Staphylococcus aureus. Nature of the assay: Antibacterial activity against methicillin-resistant Staphylococcus aureus 3167 measured after 24 hrs by two-fold serial dilution method. Format: functional. Conditions: Staphylococcus aureus, 3167, 24 h.
The subject of assay [11] is Staphylococcus aureus. Nature of the assay: Antibacterial activity against Staphylococcus aureus 503 measured after 24 hrs by two-fold serial dilution method. Format: functional. The note with it: Staphylococcus aureus, 503, 24 h.
Assay [12] concerns Candida albicans. Nature of the assay: Antifungal activity against Candida albicans 7535 measured after 24 hrs by two-fold serial dilution method. The note with it: Candida albicans, 7535, 24 h. In kind it is functional.
Assay [13] concerns Staphylococcus aureus. Put plainly: Antibacterial activity against quinolone-resistant Staphylococcus aureus 3505 measured after 24 hrs by two-fold serial dilution method. Conditions: Staphylococcus aureus, 3505, 24 h. Format: functional.
In assay [14] the test system is Escherichia coli. Nature of the assay: Antibacterial activity against Escherichia coli 1924 measured after 24 hrs by two-fold serial dilution method. Format: functional. Conditions: Escherichia coli, 1924, 24 h.

In general, MIC refers to the smallest concentration in the dilution series that meets the test's criterion for growth inhibition. For orientation: inhibition in vivo means the relative decrease from the control value, in per cent. As to `N=C(N)N/N=C/c1ccc(/C=C/C(=O)c2ccccc2Cl)cc1`, the MIC in assay [1] was found to be 8 µg/mL (≈ 24.5 µM); in assay [2], 8 µg/mL (≈ 24.5 µM); in assay [3], 8 µg/mL (≈ 24.5 µM); in [4] it was 8 µg/mL (≈ 24.5 µM); in assay [5] it was 16 µg/mL (≈ 49 µM); in assay [7], 16 µg/mL (≈ 49 µM). Moreover, the minimum inhibitory concentration (MIC) in assay [8], in assay [9], in assay [10], in [11], in assay [12] and in assay [13] was 8 µg/mL (≈ 24.5 µM) throughout. The molecule further displayed a minimal inhibitory concentration (MIC) in [14] of 8 µg/mL (≈ 24.5 µM). In addition, in [6], the inhibition in vivo at 100 mg/kg was determined as 84.1%.

As for `N=C(N)N/N=C/c1ccc(/C=C/C(=O)c2ccccc2Br)cc1`, the minimum inhibitory concentration (MIC) in assay [1] was determined as 8 µg/mL (≈ 21.5 µM); in [2] it was 8 µg/mL (≈ 21.5 µM); in [3], 4 µg/mL (≈ 10.8 µM); in assay [4] it was 8 µg/mL (≈ 21.5 µM); in [5], 16 µg/mL (≈ 43.1 µM); in assay [7], 16 µg/mL (≈ 43.1 µM). Also, the minimal inhibitory concentration (MIC) is 4 µg/mL (≈ 10.8 µM) in assay [8]; 8 µg/mL (≈ 21.5 µM) in assay [9]; 8 µg/mL (≈ 21.5 µM) in assay [10]; 8 µg/mL (≈ 21.5 µM) in assay [11]; 8 µg/mL (≈ 21.5 µM) in [12]; 8 µg/mL (≈ 21.5 µM) in assay [13]. In addition, the lowest concentration to inhibit growth in assay [14] (MIC) was 8 µg/mL (≈ 21.5 µM). Also, the inhibition in vivo at 100 mg/kg in [6] is 78.3%.

`N=C(N)N/N=C/c1ccc(/C=C/C(=O)c2ccc(F)cc2)cc1`: the minimum inhibitory concentration (MIC) was found to be 4 µg/mL (≈ 12.9 µM) in assay [1]; 8 µg/mL (≈ 25.8 µM) in [2]; 4 µg/mL (≈ 12.9 µM) in assay [3]; 8 µg/mL (≈ 25.8 µM) in assay [4]; 8 µg/mL (≈ 25.8 µM) in assay [5]; 8 µg/mL (≈ 25.8 µM) in [7]. The MIC in assay [8] came out at 4 µg/mL (≈ 12.9 µM); in [9], 4 µg/mL (≈ 12.9 µM); in [10], 8 µg/mL (≈ 25.8 µM); in assay [11], 8 µg/mL (≈ 25.8 µM); in [12], 4 µg/mL (≈ 12.9 µM); in [13] it was 8 µg/mL (≈ 25.8 µM). Moreover, the lowest concentration to inhibit growth in assay [14] (MIC) was 4 µg/mL (≈ 12.9 µM). Also, the inhibition in vivo at 100 mg/kg in assay [6] is 90.7%.

Regarding `CC(C)Cc1ccc(C(C)C(=O)O)cc1` (stereo unspecified) [IBUPROFEN], the inhibition in vivo at 100 mg/kg in assay [6] came out at 87.4%.

`N=C(N)N/N=C/c1ccc(/C=C/C(=O)c2ccc(Cl)cc2)cc1`: the minimum inhibitory concentration (MIC) was found to be 2 µg/mL (≈ 6.12 µM) in assay [1]; 4 µg/mL (≈ 12.2 µM) in [2]; 4 µg/mL (≈ 12.2 µM) in [3]; 4 µg/mL (≈ 12.2 µM) in assay [4]; 8 µg/mL (≈ 24.5 µM) in assay [5]; 8 µg/mL (≈ 24.5 µM) in [7]. In addition, the minimum inhibitory concentration (MIC) in [8] turned out to be 2 µg/mL (≈ 6.12 µM); in assay [9] it was 2 µg/mL (≈ 6.12 µM); in [10], 4 µg/mL (≈ 12.2 µM); in assay [11], 4 µg/mL (≈ 12.2 µM); in [12] it was 4 µg/mL (≈ 12.2 µM); in assay [13] it was 4 µg/mL (≈ 12.2 µM). The MIC in assay [14] came to 2 µg/mL (≈ 6.12 µM). In assay [6], the inhibition in vivo at 100 mg/kg stood at 56.4%.

Take `Cc1ccc(C(=O)/C=C/c2ccc(/C=N/NC(=N)N)cc2)cc1`: the MIC in assay [1] turned out to be 2 µg/mL (≈ 6.53 µM); in [2] it was 4 µg/mL (≈ 13.1 µM); in assay [3] it was 4 µg/mL (≈ 13.1 µM); in [4], 8 µg/mL (≈ 26.1 µM); in [5], 4 µg/mL (≈ 13.1 µM); in [7] it was 8 µg/mL (≈ 26.1 µM). The MIC in assay [8] was 4 µg/mL (≈ 13.1 µM); in assay [9], 2 µg/mL (≈ 6.53 µM); in assay [10], 8 µg/mL (≈ 26.1 µM); in assay [11] it was 4 µg/mL (≈ 13.1 µM); in [12], 2 µg/mL (≈ 6.53 µM); in assay [13], 4 µg/mL (≈ 13.1 µM). In [14], it took 4 µg/mL (≈ 13.1 µM) to inhibit growth (MIC). Moreover, the inhibition in vivo at 100 mg/kg in assay [6] was found to be 77.7%.

The values above are taken from ChEMBL document CHEMBL3868618, “Synthesis and biological evaluation of chalcone derivatives containing aminoguanidine or acylhydrazone moieties” (Bioorg Med Chem Lett, 2016).
